Assays:
[1] = Rate of dissolution of rebaudioside A polymorph and amorphous forms in H2O at 25° C.; type: physicochemical
[2] = type: physicochemical
Description: A solution of rebaudioside A (>97% pure by HPLC ) was prepared in double distilled water (12.5 gm in 50 mL, 25% concentration) by stirring the mixture at 40° C. for 5 minutes. An amorphous form of rebaudioside A was formed by immediately using the clear solution for spray drying with the Lab-Plant spray drier SD-04 instrument (Lab-Plant Ltd., West Yorkshire, U.K.). The solution was fed through the feed pump into the nozzle atomizer which atomized it into a spray of droplets with the help of a constant flow of nitrogen/air. […] This dry powder (11-12 g, H2O 6.74%) was discharged continuously from the drying chamber and was collected in a bottle.

| Substance | Rate of dissolution in H2O at 25° C. ([1]; per 60 minutes) | Rate of dissolution in H2O at 25° C. ([1]; per 5 minutes) | solubility in water at room temperature [2] |
| --- | --- | --- | --- |
| rebaudioside A [Form 1] | (<0.2%/ %/60 minutes | – | – |
| rebaudioside A [Form 2] | – | (<30%/ %/5 minutes | – |
| rebaudioside A [Form 3] | – | High (>30%/ %/5 minutes | – |
| rebaudioside A [Form 4] | – | High (>35.0%/ %/5 minutes | > 35.0% |

Source: patent publication US20070116820A1, “EDIBLE GEL COMPOSITIONS COMPRISING HIGH-POTENCY SWEETENERS” (THE COCA-COLA COMPANY, priority 2005, published 2007)
